Source: US12493040B2, “Cancer detection method using sense of smell of nematode” (HIROTSU BIO SCIENCE INC., priority 2013, dated 2025)

Test system: RNAi-treated eri-1 (mg366) nematodes
Assay: RNAi screening of olfactory receptor genes: chemotaxis assay of RNAi-treated nematodes to odorants
Format: in vivo, Caenorhabditis elegans
Description: The RNAi assay was carried out by performing an RNAi method involving the feeding (feeding RNAi method) of eri-1 (mg366) (19), using an Ahringer library (37).
Nine adult eri-1 mutants were placed on an NGM plate containing isopropyl 1-D-1-thiogalactopyranoside (0.19 g/L), ampicillin (60 mg/L), and Escherichia coli (E. coli), and were then cultured for 4 days. Subsequently, the adult worms were used in a chemotaxis assay. The chemotaxis assay was carried out as previously reported (6, 17). In the chemotaxis assay, the present inventor has used 30 to 50 worms in each experiment in which 1 μl of 10^−3- or 10^−4-diluted odorant (low concentration), or 1 and 5 μl of undiluted odorants (high concentration) were used.
The z score and a control value in each single test from 2SD were calculated in all days (Table 3) or every day. The z score was used as a threshold indicating a great difference (−1.96 and 1.96, P<0.05). […] Accordingly, the present inventor has used the z score±1 (−0.96 and 0.96, P<0.33) as a weaker threshold.

CC(C)CCO [High Iaa] showed a chemotaxis index (Control nematodes, repellent or high concentration of attractant) of −0.84 ± 0.011, a chemotaxis index (srh-4 RNAi-treated nematodes, repellent or high concentration of attractant) of −0.73 and a chemotaxis index (srh-7 RNAi-treated nematodes, repellent or high concentration of attractant) of −0.86. It also gave a chemotaxis index (srh-8 RNAi-treated nematodes, repellent or high concentration of attractant) of −0.94, a chemotaxis index (srh-10 RNAi-treated nematodes, repellent or high concentration of attractant) of −0.96 and a chemotaxis index (srh-11 RNAi-treated nematodes, repellent or high concentration of attractant) of −0.79. It also gave a chemotaxis index (srh-15 RNAi-treated nematodes, repellent or high concentration of attractant) of −0.60, a chemotaxis index (srh-16 RNAi-treated nematodes, repellent or high concentration of attractant) of −0.74 and a chemotaxis index (srh-18 RNAi-treated nematodes, repellent or high concentration of attractant) of −0.78. It also gave a chemotaxis index (srh-19 RNAi-treated nematodes, repellent or high concentration of attractant) of −0.89, a chemotaxis index (srh-22 RNAi-treated nematodes, repellent or high concentration of attractant) of −0.81 and a chemotaxis index (srh-23 RNAi-treated nematodes, repellent or high concentration of attractant) of −0.88. The chemotaxis index (srh-24 RNAi-treated nematodes, repellent or high concentration of attractant) was −1.00, the chemotaxis index (srh-25 RNAi-treated nematodes, repellent or high concentration of attractant) was 0.13 and the chemotaxis index (srh-27 RNAi-treated nematodes, repellent or high concentration of attractant) was −0.92. The chemotaxis index (srh-28 RNAi-treated nematodes, repellent or high concentration of attractant) was −0.64, the chemotaxis index (srh-36 RNAi-treated nematodes, repellent or high concentration of attractant) was −0.59 and the chemotaxis index (srh-37 RNAi-treated nematodes, repellent or high concentration of attractant) was −0.69. It also gave a chemotaxis index (srh-39 RNAi-treated nematodes, repellent or high concentration of attractant) of −0.79, a chemotaxis index (srh-40 RNAi-treated nematodes, repellent or high concentration of attractant) of −0.88 and a chemotaxis index (srh-41 RNAi-treated nematodes, repellent or high concentration of attractant) of −0.56. For the same compound, the chemotaxis index (srh-44 RNAi-treated nematodes, repellent or high concentration of attractant) was 0.00, the chemotaxis index (srh-45 RNAi-treated nematodes, repellent or high concentration of attractant) was −0.97 and the chemotaxis index (srh-46 RNAi-treated nematodes, repellent or high concentration of attractant) was −0.91. It also gave a chemotaxis index (srh-48 RNAi-treated nematodes, repellent or high concentration of attractant) of −0.67, a chemotaxis index (srh-49 RNAi-treated nematodes, repellent or high concentration of attractant) of −0.59 and a chemotaxis index (srh-50 RNAi-treated nematodes, repellent or high concentration of attractant) of −0.93. For the same compound, the chemotaxis index (srh-51 RNAi-treated nematodes, repellent or high concentration of attractant) was −0.85, the chemotaxis index (srh-52 RNAi-treated nematodes, repellent or high concentration of attractant) was −0.96 and the chemotaxis index (srh-55 RNAi-treated nematodes, repellent or high concentration of attractant) was −0.95. The chemotaxis index (srh-59 RNAi-treated nematodes, repellent or high concentration of attractant) was −0.87, the chemotaxis index (srh-60 RNAi-treated nematodes, repellent or high concentration of attractant) was −0.77 and the chemotaxis index (srh-61 RNAi-treated nematodes, repellent or high concentration of attractant) was −0.82. For the same compound, the chemotaxis index (srh-67 RNAi-treated nematodes, repellent or high concentration of attractant) was −0.96, the chemotaxis index (srh-68 RNAi-treated nematodes, repellent or high concentration of attractant) was −0.67 and the chemotaxis index (srh-69 RNAi-treated nematodes, repellent or high concentration of attractant) was −0.94. The chemotaxis index (srh-70 RNAi-treated nematodes, repellent or high concentration of attractant) was −0.40, the chemotaxis index (srh-71 RNAi-treated nematodes, repellent or high concentration of attractant) was −0.76 and the chemotaxis index (srh-72 RNAi-treated nematodes, repellent or high concentration of attractant) was −0.55. For the same compound, the chemotaxis index (srh-74 RNAi-treated nematodes, repellent or high concentration of attractant) was −0.51, the chemotaxis index (srh-75 RNAi-treated nematodes, repellent or high concentration of attractant) was −0.50 and the chemotaxis index (srh-77 RNAi-treated nematodes, repellent or high concentration of attractant) was −0.68. For the same compound, the chemotaxis index (srh-79 RNAi-treated nematodes, repellent or high concentration of attractant) was −0.22, the chemotaxis index (srh-80 RNAi-treated nematodes, repellent or high concentration of attractant) was −0.31 and the chemotaxis index (srh-82 RNAi-treated nematodes, repellent or high concentration of attractant) was −0.53. The chemotaxis index (srh-83 RNAi-treated nematodes, repellent or high concentration of attractant) was 0.34, the chemotaxis index (srh-97 RNAi-treated nematodes, repellent or high concentration of attractant) was −0.51 and the chemotaxis index (srh-99 RNAi-treated nematodes, repellent or high concentration of attractant) was −0.33. It also gave a chemotaxis index (srh-100 RNAi-treated nematodes, repellent or high concentration of attractant) of −0.64, a chemotaxis index (srh-104 RNAi-treated nematodes, repellent or high concentration of attractant) of −0.48 and a chemotaxis index (srh-105 RNAi-treated nematodes, repellent or high concentration of attractant) of −0.76. It also gave a chemotaxis index (srh-109 RNAi-treated nematodes, repellent or high concentration of attractant) of −0.68 and a chemotaxis index (srh-111 RNAi-treated nematodes, repellent or high concentration of attractant) of −0.08.
For O=Cc1ccccc1 [benzaldehyde], the chemotaxis index (srh-10 RNAi-treated nematodes, low concentration of attractant) was 0.12, the chemotaxis index (srh-11 RNAi-treated nematodes, low concentration of attractant) was −0.11 and the chemotaxis index (srh-15 RNAi-treated nematodes, low concentration of attractant) was −0.13. The chemotaxis index (srh-16 RNAi-treated nematodes, low concentration of attractant) was 0.83, the chemotaxis index (srh-18 RNAi-treated nematodes, low concentration of attractant) was 0.05 and the chemotaxis index (srh-19 RNAi-treated nematodes, low concentration of attractant) was 0.64. It also gave a chemotaxis index (srh-22 RNAi-treated nematodes, low concentration of attractant) of 0.28, a chemotaxis index (srh-23 RNAi-treated nematodes, low concentration of attractant) of 0.54 and a chemotaxis index (srh-24 RNAi-treated nematodes, low concentration of attractant) of 0.69. For the same compound, the chemotaxis index (srh-214 RNAi-treated nematodes, low concentration of attractant) was 0.57, the chemotaxis index (srh-216 RNAi-treated nematodes, low concentration of attractant) was 0.47 and the chemotaxis index (srh-217 RNAi-treated nematodes, low concentration of attractant) was 0.76. The chemotaxis index (srh-220 RNAi-treated nematodes, low concentration of attractant) was 0.61, the chemotaxis index (srh-222 RNAi-treated nematodes, low concentration of attractant) was 0.76 and the chemotaxis index (srh-223 RNAi-treated nematodes, low concentration of attractant) was 0.49. For the same compound, the chemotaxis index (srh-227 RNAi-treated nematodes, low concentration of attractant) was 0.56, the chemotaxis index (srh-229 RNAi-treated nematodes, low concentration of attractant) was −0.21 and the chemotaxis index (srh-233 RNAi-treated nematodes, low concentration of attractant) was −0.11. For the same compound, the chemotaxis index (srh-235 RNAi-treated nematodes, low concentration of attractant) was 0.32, the chemotaxis index (srh-236 RNAi-treated nematodes, low concentration of attractant) was 0.31 and the chemotaxis index (srh-239 RNAi-treated nematodes, low concentration of attractant) was 0.34. For the same compound, the chemotaxis index (srh-241 RNAi-treated nematodes, low concentration of attractant) was 0.66, the chemotaxis index (srh-243 RNAi-treated nematodes, low concentration of attractant) was 0.30 and the chemotaxis index (srh-244 RNAi-treated nematodes, low concentration of attractant) was 0.43. It also gave a chemotaxis index (srh-247 RNAi-treated nematodes, low concentration of attractant) of 0.40, a chemotaxis index (srh-250 RNAi-treated nematodes, low concentration of attractant) of 0.40 and a chemotaxis index (srh-251 RNAi-treated nematodes, low concentration of attractant) of 0.70. It also gave a chemotaxis index (srh-252 RNAi-treated nematodes, low concentration of attractant) of 0.71, a chemotaxis index (srh-258 RNAi-treated nematodes, low concentration of attractant) of 0.40 and a chemotaxis index (srh-261 RNAi-treated nematodes, low concentration of attractant) of 0.45. It also gave a chemotaxis index (srh-264 RNAi-treated nematodes, low concentration of attractant) of 0.38, a chemotaxis index (srh-266 RNAi-treated nematodes, low concentration of attractant) of 0.32 and a chemotaxis index (srh-274 RNAi-treated nematodes, low concentration of attractant) of 0.45. It also gave a chemotaxis index (srh-275 RNAi-treated nematodes, low concentration of attractant) of 0.16, a chemotaxis index (srh-276 RNAi-treated nematodes, low concentration of attractant) of 0.56 and a chemotaxis index (srh-277 RNAi-treated nematodes, low concentration of attractant) of 0.49. The chemotaxis index (srh-279 RNAi-treated nematodes, low concentration of attractant) was 0.34, the chemotaxis index (srh-281 RNAi-treated nematodes, low concentration of attractant) was 0.33 and the chemotaxis index (srh-282 RNAi-treated nematodes, low concentration of attractant) was 0.24. For the same compound, the chemotaxis index (srh-283 RNAi-treated nematodes, low concentration of attractant) was 0.21, the chemotaxis index (srh-284 RNAi-treated nematodes, low concentration of attractant) was 0.29 and the chemotaxis index (srh-291 RNAi-treated nematodes, low concentration of attractant) was 0.58. It also gave a chemotaxis index (srh-292 RNAi-treated nematodes, low concentration of attractant) of 0.48, a chemotaxis index (srh-293 RNAi-treated nematodes, low concentration of attractant) of 0.31 and a chemotaxis index (srh-297 RNAi-treated nematodes, low concentration of attractant) of 0.63. For the same compound, the chemotaxis index (srh-298 RNAi-treated nematodes, low concentration of attractant) was 0.66 and the chemotaxis index (srh-308 RNAi-treated nematodes, low concentration of attractant) was 0.14.
